# Laboratory results: patent US9861592B2, “Methods and compositions for treating neurodegenerative diseases” (Golden Biotechnology Corporation, priority 2012, dated 2018)
# Test system: PC12 cells
# Test: CCK-8 cell viability assay, titration of Compound 1 in NGF-induced PC12 cells
# Type: cell-based
# Conditions: Rattus norvegicus, PC-12, 48 h
# Description: Rat pheochromocytoma PC12 cells, purchased from Bioresource Collection and Research Center (BCRC), were cultured in RPMI1640 medium (Gibco, MD) containing 10% fetal calf serum, 5% horse donor serum, 100 μg/ml streptomycin, 100 units/ml penicillin, 2 mM L-glutamine, and maintained in humidified incubator at 37° C. with 5% CO2. Cells were transferred twice a week. Experiments were carried out in 96-well plates coated with poly-D-lysine (1 mg/mL) to assist cell adhesion. PC12 cells were grown on medium with mouse submaxillary-gland nerve growth factor (NGF 2.5S, 100 ng/ml; Invitrogen, Carlsbad, Calif.) for 48 h to induce differentiation into neuron-like cells before all experiments conducted in this study.
# To optimize the exemplary Compound 1 concentration for NGF-induced PC12 neural model, titration experiments were performed to determine the IC50 values of Compound 1 in PC12. PC12 Cells (1×10^4 cells) were incubated with various concentrations of Compound 1 (0.001, 0.01, 0.1, 1, 10, 100 μg/ml in a 10% serum-supplemented medium; 0.3, 1, 3, 10, 30, 100 μg/ml in serum-free medium) for 48 h.
# The viability of cells was measured using the Cell Counting Kit-8 (CCK-8, Enzo, Life Sciences). A highly water-soluble tetrazolium salt, WST-8, is reduced by dehydrogenases in cells to give a yellow-colored product (formazan), which is soluble in the culture medium. The amount of the fomazan dye generated by the activity of dehydrogenases in cells is directly proportional to the number of living cells. After treatments, the CCK-8 solution was added to each well of plates and incubates the plate for 4 h in the incubator. The concentration of the formazan product was determined spectrophotometrically at an absorbance wavelength 450 nm and cell viability was expressed as a percentage of the corresponding control.
smiles,measurement,setting,value
"COC1=C(OC)C(O)C(C/C=C(\C)CC/C=C(\C)CCC=C(C)C)C(C)C1=O (stereo not drawn) [Compound 1, 4-hydroxy-2,3-dimethoxy-6-methyl-5-(3,7,11-trimethyldodeca-2,6,10-trienyl)cyclohex-2-enone]",IC50,"PC12, 10% serum supplemented media, unit as printed in b23",58 µg/mL
same,IC50,"PC12, 10% serum supplemented media, unit as printed in b151",58 µg/mL
same,IC50,"PC12, serum-free media",13.4 µg/mL
